This passage reports IC50 results from PMC11793105, “A kalihinol analog disrupts apicoplast function and vesicular trafficking in P. falciparum malaria” (Science (New York, N.Y.), 2024).

Experiment [1] deals with P. falciparum W2 (MRA-157, chloroquine resistant). Briefly: SYBR Green I growth inhibition assay, W2. In kind it is cell-based, Plasmodium falciparum. Conditions: early-ring stage, 72 h exposure. The method, then:
Fig. 1. […] (B) SYBR Green–based dose response assays were conducted on early-ring stage parasites (6 hours after invasion). […] 3D7 WT (blue), NF54 (green), drug-resistant strains Dd2 (red), HB3 (black), W2 (gray), and D10-ACP-GFP (purple) lines (Sigmoidal, 4PL, X is concentration, n ≥ 3, nonlinear regression, CI: 95%). (C) Schematic diagram of the development of P. falciparum after two consecutive erythrocytic cycles. The time points at which MED6-189 was introduced are depicted in green. HPS, hours post synchronization. […] The images depict various developmental stages of the parasite’s intraerythrocytic life cycle. Bordered images represent time points when drug was first introduced (n = 3 biological replicates, P < 0.05).
(§1) Detailed information on materials and methods is available in the supplementary materials. […] P. knowlesi assays were quantitatively measured by flow cytometry using SYBR Green I and Mitrotracker Deep Red, as previously described ([84], [85]), on a Beckman Coulter CytoFLEX. […]
(§2) P. falciparum in vitro SYBR green fluorescence-based assays The anti-malarial activity of individual analogues were evaluated in-vitro against P. falciparum 3D7 (MRA-102, drug […]
(§3) green-I based fluorescence assay. Parasite growth rate and stages of development were determined via microscopy through Giemsa-stained smears of the cultures. […]

Experiment [2] relates to P. knowlesi YH1 rhesus erythrocyte infecting parasites. The experiment is described as follows: P. knowlesi in vitro IC50 assay (flow cytometry), rhesus erythrocytes. In kind it is cell-based. Conditions: Plasmodium knowlesi, in Macaca mulatta. Here is the method: Fig. 5. In vivo and broad-spectrum antimalarial efficacy of MED6-189. (A) The in vivo efficacy of MED6-189 was evaluated in a humanized mouse model infected with P. falciparum (blue) compared with untreated controls (black). […] The graphs illustrate the logarithmic growth of parasites (y axis) in response to varying drug concentrations (x axis). Error bars represent standard deviations from two independent experiments conducted in triplicate. The regression line is derived from a nonlinear regression analysis (variable slope with four parameters, least squares fit). (C) Proposed mode of action of MED6-189 in P. falciparum–infected erythrocytes. […]
as §1, §2, §3
(In general: Flow cytometry measures light scatter and fluorescence of single cells or particles in a stream.)

Turning to `[C-]#[N+][C@]1(C)CC[C@H]2[C@@H]([C@@H](C(C)C)CC[C@]2(C)[N+]#[C-])[C@H]1O` [MED6-189], the IC50 was found to be 27 ± 5 nM in experiment [1] (Plasmodium falciparum, W2, 72 h); 26.7 nM in experiment [1]; 276 ± 22 nM in experiment [2].

What is called IC50 is the concentration that gives 50% inhibition. A higher IC50 goes with weaker potency.
